Assay results reported in patent US10047341B2, “Generation of keratinocytes from pluripotent stem cells and maintenance of keratinocyte cultures” (FUJIFILM Cellular Dynamics, Inc., priority 2014, dated 2018).
Entries after “also recorded” stand apart in the source; their conditions may differ.

What was measured:
human ESC/iPSCs = experiment: iKCs derivation from human ESC/iPSCs: critical medium components; assay type: cell-based; conditions: for K14 expression with different fibroblast growth factors: anti-K14 immunofluorescence
[1] = tested on: primary keratinocytes cultured in KCM4; assay type: cell-based, human; conditions: Passage 3 keratinocytes in KCM4, 1.5 mM Ca^2+ for 3 days
Experimental: Keratinocytes were cultured in KCM4 and at 80%-90% confluence, cells were either treated with 1.5 mM Ca^2+ for 3 days or fixed (no calcium control). Cells were assessed by immunocytochemistry for expression of differentiation markers Kl, Loricrin, and Filaggrin using polyclonal rabbit antibodies (Covance).

[2] = tested on: primary human keratinocytes; experiment: Long-term culture of primary keratinocytes (population doubling); conditions: for life span and stemness of primary keratinocytes in culture: niacinamide 3 mM, BMP4 0.5 ng/mL as components of KCM4; for keratinocyte growth: KCM1 with IGF or insulin 0-10 μg/mL
Experimental: Keratinocytes were maintained in the indicated medium and passaged every 4-5 days (at ˜80% confluence). For passage, keratinocytes were incubated with a 0.1% Trypsin in Versene solution at 37° C. for 5 minutes. The trypsin was neutralized with 0.5 mg/mL of trypsin inhibitor. The cells were centrifuged at 1200 rpm for 4 min. Cells were counted with a Cellometer (Nexcelom). Cells (25,000-50,000) were plated per well of 6-well plates in the indicated keratinocyte culture media. Media was changed every other day.
Cells were maintained by serial passage at ˜80% confluence until senescence. The total number of cell doublings for each passage was calculated using the following formula: 3.32 log(N/No). Where No refers to the number of cells plated at the beginning of each passage and N is the number of cells recovered at the end of each passage.

[3] = tested on: primary human keratinocytes; experiment: Morphology analysis of primary keratinocytes; assay type: cell-based
[4] = tested on: primary human keratinocytes; experiment: Colony formation assay (CFA) of primary keratinocytes; assay type: cell-based; conditions: for performance in CFA: KCM1 supplemented with either IGF or insulin, CFA in KCM1 (10 μg/mL insulin), 12 days
Experimental: Cells were plated at low density (250 cells/well of a 6-well plate) and allowed to grow for 8-12 days. For FIGS. 7 and 8, cells were switched from the indicated culture medium to KCM1 (10 μg/mL insulin) at the beginning of the CFA. Keratinocytes were cultured in KCM1 (10 μg/mL insulin) for 12 days and colony size was measured. For FIGS. 9, 10, and 12, the CFAs were performed with the medium used for maintaining the keratinocytes. KCM4 needed to be supplemented with 5 μg/mL insulin to support colony growth. Colonies were allowed to grow for 8 days and colony size was measured. Following culture, plates were fixed and stained with Hoechst stain. The whole plate was imaged at 40× with an ImageXpress high content imager (Molecular Devices). The total number of colonies per well was counted and the size of each colony was measured using ImageJ software. Colony counts are shown in bar graphs where bar height represents the average number of colonies/well for each passage and the error bars represent the standard deviation. Colony sizes are presented in box and whisker plots where the center line represents the median, the box represents the inter-quartile range and the whiskers represent the 5-95 percentile. Data that fall outside this range are plotted individually.

[5] = Passage 0, Day 14 differentiation culture, phase-contrast
[6] = Passage 0, Day 14 differentiation culture
[7] = KCM1, IGF and low concentrations of insulin (0.05 μg/mL and 0 μg/mL)

In the case of `Cc1cccc(-c2[nH]ncc2-c2ccc3ncccc3n2)n1` [TGFRKi, TGFβ RI Kinase Inhibitor II, reference compound], the “iKCs derivation when component is left out of the media” value (human ESC/iPSCs; [5]) is reported as “iKCs cannot be derived efficiently”.
In the case of `[Ca+2]` [calcium], the “differentiation at too high medium level of component” value (human ESC/iPSCs; 1 mM) is reported as “simple epithelial progenitors would not further differentiate into keratinocytes” and the “expression of differentiation markers Keratin 1, Loricrin, and Filaggrin” value [1] is reported as “Expression of all three differentiation markers was detected”.
`NC(=O)c1cccnc1` [niacinamide, reference compound] was tested, and the “life span and stemness of primary keratinocytes in culture” value [2] was “maintained the stemness of primary keratinocyte stem cells in culture”, the “life span and stemness of primary keratinocytes in culture” value ([2]; listed as Niacinamide) was “extend the life span of primary keratinocytes in culture” and the cell size ([3]; primary keratinocytes cultured in the indicated medium) was “made the cells smaller”. The “differentiation when concentration of component is not sufficient” value (human ESC/iPSCs; [5]) was “the differentiation process was incomplete”.
With “EGF: epidermal growth factor (NSDSECPLSHDGYCLHDGVCMYIEALDKYACNCVVGYIGERCQYRDLKWWELR; UniProt P01133 971-1023, looked up)” the “differentiation when concentration of component is not sufficient” value (human ESC/iPSCs; [5]) was “the differentiation process was incomplete”.
In the case of FGF1: acidic fibroblast growth factor, the “K14 expression with different fibroblast growth factors” value (human ESC/iPSCs; [6]) is reported as “efficiently direct cells to express mature keratinocyte marker K14”.
In the case of FGF2: fibroblast growth factor FGF2, the “K14 expression with different fibroblast growth factors” value (human ESC/iPSCs; [6]) is reported as “did not promote homogeneous K14 expression”.
“IGF: IGF1 growth factor, medium supplement (10 ng/mL)” was tested, and the keratinocyte growth [2] was “support human neonatal foreskin primary keratinocyte growth”, the “performance in CFA” value [4] was “performed similarly” and the “morphology at later passages (p6)” value [3, 7] was “smaller and appear to be more tightly attached to each other”.
In the case of VEGF, the “proliferative potential in long-term culture” value ([2]; VEGF 25 ng/mL added to KCM4) is reported as “increase the proliferative potential of keratinocytes; also recorded: increased the proliferative potential of primary keratinocytes”, the “effect in CFA in later passages” value ([4]; VEGF 25 ng/mL added to KCM4) is reported as “Positive effect” and the “morphology after addition of VEGF” value ([3]; VEGF 25 ng/mL added to KCM4) is reported as “did not show any morphological differences”.
With “insulin: insulin, medium supplement (0-10 μg/mL)” the keratinocyte growth [2] was “grew well at all concentrations”, the keratinocyte growth ([2]; listed as Insulin) was “support human neonatal foreskin primary keratinocyte growth” and the “performance in CFA” value [4] was “performed similarly”. For the same molecule, the “morphology at later passages (p6)” value [3, 7] was “smaller and appear to be more tightly attached to each other” and the “morphology at later passages (p6)” value ([3]; KCM1, high concentrations of insulin (1 μg/mL and higher)) was “many larger, differentiated cells”.
